From PubChem BioAssay (NCI)
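Each compound was tested at five concentrations against cells in 96-well plates for 48 hours. The concentration for 50% growth inhibition is given as GI50. TGI marks complete inhibition of growth.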

Tests used:
Test in all cases: NCI-60 cell line screen, 48 h
SF-295 CNS = test system: SF-295 CNS
A549 NSCLC = test system: A549 NSCLC
M14 melanoma = test system: M14 melanoma
TK-10 renal = test system: TK-10 renal
UACC-257 melanoma = test system: UACC-257 melanoma
MCF7 breast = test system: MCF7 breast
OVCAR-3 ovarian = test system: OVCAR-3 ovarian
ACHN renal = test system: ACHN renal
OVCAR-8 ovarian = test system: OVCAR-8 ovarian
A498 renal = test system: A498 renal

Structure (SMILES)	TGI (SF-295 CNS)	TGI (A549 NSCLC)	TGI (M14 melanoma)	TGI (TK-10 renal)	TGI (UACC-257 melanoma)	TGI (MCF7 breast)	TGI (OVCAR-3 ovarian)	TGI (ACHN renal)	TGI (OVCAR-8 ovarian)	TGI (A498 renal)	GI50 (SF-295 CNS)	GI50 (A549 NSCLC)	GI50 (M14 melanoma)	GI50 (TK-10 renal)	GI50 (UACC-257 melanoma)	GI50 (MCF7 breast)	GI50 (OVCAR-3 ovarian)	GI50 (ACHN renal)	GI50 (OVCAR-8 ovarian)	GI50 (A498 renal)
Cc1ccc(NC(=O)CC(=O)N2N=C(c3ccccc3)C(N=Nc3ccc(S(=O)(=O)CCOS(=O)(=O)O)cc3)C2=O)cc1 (stereo not given)	> 100 µM	> 100 µM	> 100 µM	> 100 µM	> 100 µM	> 100 µM	> 100 µM	> 100 µM	> 100 µM	> 100 µM	–	–	–	–	–	–	–	–	–	–
O=C(CCC(=O)OCC1OC(O)(CC2OC(CO)C(O)C(O)C2O)C(O)C1O)OCc1ccccc1 (stereo not given)	> 100 µM	> 100 µM	> 100 µM	> 100 µM	> 100 µM	> 100 µM	> 100 µM	> 100 µM	> 100 µM	> 100 µM	–	–	–	–	–	–	–	–	–	–
Cc1ccc(CC(=O)Nc2ccc(NC(=O)CNC(=O)/C=C/c3ccc(-c4ccccc4)cc3)cc2C(=O)c2ccccc2)cc1	4.86 µM	5.37 µM	17.3 µM	5.95 µM	22.7 µM	3.69 µM	19.1 µM	16.2 µM	3.27 µM	8.73 µM	–	–	–	–	–	–	–	–	–	–
COC1=C(OC)C(=O)C(Cc2c(Cl)nc3n2CCS3)=C(C)C1=O	30.4 µM	40.6 µM	27.2 µM	32 µM	22.2 µM	33 µM	37.2 µM	33.2 µM	29.8 µM	35.6 µM	–	–	–	–	–	–	–	–	–	–
O=C(O)C(CO)NC(=O)C1C(C(=O)O)C(c2ccccc2[N+](=O)[O-])C=C(c2ccco2)N1c1ccncc1 (stereo not given)	19 µM	11.1 µM	13.9 µM	9.48 µM	9.9 µM	5.63 µM	17.1 µM	3.67 µM	31 µM	24.8 µM	–	–	–	–	–	–	–	–	–	–
Cc1ccc(Nc2nc(NS(=O)(=O)c3cc(C)c(Cl)cc3S)n[nH]2)cc1	> 100 µM	> 100 µM	> 100 µM	> 100 µM	> 100 µM	> 100 µM	> 100 µM	> 100 µM	> 100 µM	> 100 µM	–	–	–	–	–	–	–	–	–	–
CCOC(=O)O/N=C1/C(c2c(O)[nH]c3ccccc23)=Nc2ccccc21	48.8 µM	33.1 µM	24.2 µM	24 µM	24.6 µM	18.4 µM	8 µM	33.1 µM	30.8 µM	16.8 µM	–	–	–	–	–	–	–	–	–	–
CC(C)(C)OC(=O)NCCNC(=O)CN(CC(=O)O)C1CCCCC1N(CC(=O)O)CC(=O)O (stereo not given)	> 100 µM	> 100 µM	> 100 µM	> 100 µM	> 100 µM	> 100 µM	> 100 µM	> 100 µM	> 100 µM	> 100 µM	–	–	–	–	–	–	–	–	–	–
COC1CCC(n2c([C@@H]3CCCC(=O)N3c3ccc(F)c(F)c3)nc3cc(-c4c(C)noc4C)ccc32)CC1 (stereo not given in full)	29 µM	69.5 µM	19.9 µM	12.7 µM	> 100 µM	15.1 µM	32.3 µM	21.1 µM	40.8 µM	20 µM	6.72 µM	11.8 µM	1.87 µM	2.46 µM	2.54 µM	0.626 µM	10.5 µM	4.78 µM	10.2 µM	5.99 µM
O=C(NNCc1ccccc1O)c1ccccc1O	17.4 µM	> 100 µM	24.2 µM	> 100 µM	> 100 µM	80.3 µM	6.29 µM	> 100 µM	> 100 µM	> 100 µM	–	–	–	–	–	–	–	–	–	–
Nc1ccc(-c2nc3cc(F)ccc3s2)cc1	> 85.7 µM	> 100 µM	> 100 µM	> 93.1 µM	> 100 µM	> 63.2 µM	> 100 µM	> 61.7 µM	> 100 µM	> 100 µM	–	–	–	–	–	–	–	–	–	–
O=[N+]([O-])c1ccc(-[n+]2ccc3ccccc3c2)c([N+](=O)[O-])c1	28.5 µM	34.1 µM	8.69 µM	3.52 µM	4.08 µM	3.75 µM	6.2 µM	4.44 µM	6.74 µM	28 µM	–	–	–	–	–	–	–	–	–	–
CC(CN(C)C)C(=O)/C=C/c1ccc(Cl)c(Cl)c1 (stereo not given)	12.9 µM	13.8 µM	5.13 µM	4.63 µM	5.61 µM	0.929 µM	3.87 µM	3.92 µM	2.85 µM	3.69 µM	–	–	–	–	–	–	–	–	–	–
CC(C)(C)OC(=O)N1C/C=C\C(=O)C2(OCCO2)c2ccccc21	73.9 µM	> 100 µM	65.1 µM	47.3 µM	39.3 µM	96.2 µM	29.6 µM	> 100 µM	86.6 µM	> 100 µM	–	–	–	–	–	–	–	–	–	–
